Laboratory results published in patent publication US7034036B2, “Inhibitors of ABC drug transporters at the blood-brain barrier” (Pain Therapeutics, Inc., priority 2000, dated 2006).
“Also recorded” adds a separate entry of the source.

How the values were obtained:
[1] = system: mice; assay: Tail flick anti-nociception, naltrexone given with morphine from day 1 (Groups C, D, combined analysis); assay type: in vivo; set-up: Enhancement of Latency (tail flick) / Enhancement of Latency by Naltrexone (tail flick): unit not given here
Description: In a third series of experiments, 40 male mice were randomized into 5 groups of eight. All mice were administered single 3 mg/kg morphine daily (b.i.d.), beginning on Day 1.
In a final series of experiments, 40 female mice were randomized into 5 groups of eight. All mice were administered single 3 mg/kg morphine daily (b.i.d.), beginning on Day 1.

[2] = system: mice; assay: Tail flick anti-nociception, naltrexone begun at day 6 in mice dosed daily with morphine (Groups A, B); assay type: in vivo; settings: morphine 3 mg/kg daily
Description: 40 male mice were randomized into 5 groups of eight. All mice were administered single 3 mg/kg morphine daily (b.i.d.), beginning on Day 1.
In a second series of experiments, 40 female mice were randomized into 5 groups of eight. All mice were administered single 3 mg/kg morphine daily (b.i.d.), beginning on Day 1.
3 mg/kg of morphine was administered as a single bolus dose to each mouse on group 1 on a daily basis. Mice in Group 2 were also administered 3 mg/kg morphine daily.

O=C1CC[C@@]2(O)[C@H]3Cc4ccc(O)c5c4[C@@]2(CCN3CC2CC2)[C@H]1O5 [Naltrexone, naltrexone]
Enhancement of Latency by Naltrexone (tail flick) ([1]; female mice, Group 4: morphine 3 mg/kg + naltrexone 300 ng/kg b.i.d. from day 1, Day 7): 0.2 | Enhancement of Latency by Naltrexone (tail flick) ([1]; female mice, Group 4: morphine 3 mg/kg + naltrexone 300 ng/kg b.i.d. from day 1, Day 10): 5.9 | Enhancement of Latency by Naltrexone (tail flick) ([1]; female mice, Group 4: morphine 3 mg/kg + naltrexone 300 ng/kg b.i.d. from day 1, Day 11, single bolus 10 μg/kg naltrexone in addition): 0.8 | Enhancement of Latency by Naltrexone (tail flick) ([1]; female mice, Group 5: morphine 3 mg/kg + naltrexone 3000 ng/kg b.i.d. from day 1, Day 1): 12.3 | Enhancement of Latency by Naltrexone (tail flick) ([1]; female mice, Group 5: morphine 3 mg/kg + naltrexone 3000 ng/kg b.i.d. from day 1, Day 3): 9.6 | Enhancement of Latency by Naltrexone (tail flick) ([1]; female mice, Group 5: morphine 3 mg/kg + naltrexone 3000 ng/kg b.i.d. from day 1, Day 5): 3.4 | Enhancement of Latency by Naltrexone (tail flick) ([1]; female mice, Group 5: morphine 3 mg/kg + naltrexone 3000 ng/kg b.i.d. from day 1, Day 7): 1.9 | Enhancement of Latency by Naltrexone (tail flick) ([1]; female mice, Group 5: morphine 3 mg/kg + naltrexone 3000 ng/kg b.i.d. from day 1, Day 10): 6.7 | Enhancement of Latency by Naltrexone (tail flick) ([1]; female mice, Group 5: morphine 3 mg/kg + naltrexone 3000 ng/kg b.i.d. from day 1, Day 11, single bolus 10 μg/kg naltrexone in addition): −0.7 | Latency versus other doses ([1]; female mice, dose 0.3 ng/kg as printed, not significantly different from 0.03 or 3 ng/kg): gave the longest latency | Latency versus other concentrations ([1]; male mice, Groups A and C combined, days 8 and 10, naltrexone at 300 ng): gave the greatest latency | Enhancement of Latency by Naltrexone (tail flick) ([1]; male mice, Group 2: morphine 3 mg/kg + naltrexone 3 ng/kg b.i.d. from day 1, Day 1): 13.3 | Enhancement of Latency by Naltrexone (tail flick) ([1]; male mice, Group 2: morphine 3 mg/kg + naltrexone 3 ng/kg b.i.d. from day 1, Day 3): 7.5 | Enhancement of Latency by Naltrexone (tail flick) ([1]; male mice, Group 2: morphine 3 mg/kg + naltrexone 3 ng/kg b.i.d. from day 1, Day 5): 4.5 | Enhancement of Latency by Naltrexone (tail flick) ([1]; male mice, Group 2: morphine 3 mg/kg + naltrexone 3 ng/kg b.i.d. from day 1, Day 8): 5.5 | Enhancement of Latency by Naltrexone (tail flick) ([1]; male mice, Group 2: morphine 3 mg/kg + naltrexone 3 ng/kg b.i.d. from day 1, Day 10): 2.7 | Enhancement of Latency by Naltrexone (tail flick) ([1]; male mice, Group 2: morphine 3 mg/kg + naltrexone 3 ng/kg b.i.d. from day 1, Day 12, single bolus 10 μg/kg naltrexone to every mouse): 1.1 | Enhancement of Latency by Naltrexone (tail flick) ([1]; male mice, Group 3: morphine 3 mg/kg + naltrexone 30 ng/kg b.i.d. from day 1, Day 1): 12.4 | Enhancement of Latency by Naltrexone (tail flick) ([1]; male mice, Group 3: morphine 3 mg/kg + naltrexone 30 ng/kg b.i.d. from day 1, Day 3): 9.3 | Enhancement of Latency by Naltrexone (tail flick) ([1]; male mice, Group 3: morphine 3 mg/kg + naltrexone 30 ng/kg b.i.d. from day 1, Day 5): 7.5 | Enhancement of Latency by Naltrexone (tail flick) ([1]; male mice, Group 3: morphine 3 mg/kg + naltrexone 30 ng/kg b.i.d. from day 1, Day 8): 7.1 | Enhancement of Latency by Naltrexone (tail flick) ([1]; male mice, Group 3: morphine 3 mg/kg + naltrexone 30 ng/kg b.i.d. from day 1, Day 10): 3.2 | Enhancement of Latency by Naltrexone (tail flick) ([1]; male mice, Group 3: morphine 3 mg/kg + naltrexone 30 ng/kg b.i.d. from day 1, Day 12, single bolus 10 μg/kg naltrexone to every mouse): −0.8 | Enhancement of Latency by Naltrexone (tail flick) ([1]; male mice, Group 4: morphine 3 mg/kg + naltrexone 300 ng/kg b.i.d. from day 1, Day 1): 16.3 | Enhancement of Latency by Naltrexone (tail flick) ([1]; male mice, Group 4: morphine 3 mg/kg + naltrexone 300 ng/kg b.i.d. from day 1, Day 3): 17.1 | Enhancement of Latency by Naltrexone (tail flick) ([1]; male mice, Group 4: morphine 3 mg/kg + naltrexone 300 ng/kg b.i.d. from day 1, Day 5): 11.8 | Enhancement of Latency by Naltrexone (tail flick) ([1]; male mice, Group 4: morphine 3 mg/kg + naltrexone 300 ng/kg b.i.d. from day 1, Day 8): 9.4 | Enhancement of Latency by Naltrexone (tail flick) ([1]; male mice, Group 4: morphine 3 mg/kg + naltrexone 300 ng/kg b.i.d. from day 1, Day 10): 6.1 | Enhancement of Latency by Naltrexone (tail flick) ([1]; male mice, Group 4: morphine 3 mg/kg + naltrexone 300 ng/kg b.i.d. from day 1, Day 12, single bolus 10 μg/kg naltrexone to every mouse): −0.2 | Enhancement of Latency by Naltrexone (tail flick) ([1]; male mice, Group 5: morphine 3 mg/kg + naltrexone 3000 ng/kg b.i.d. from day 1, Day 1): 13.5 | Enhancement of Latency by Naltrexone (tail flick) ([1]; male mice, Group 5: morphine 3 mg/kg + naltrexone 3000 ng/kg b.i.d. from day 1, Day 3): 13.0 | Enhancement of Latency by Naltrexone (tail flick) ([1]; male mice, Group 5: morphine 3 mg/kg + naltrexone 3000 ng/kg b.i.d. from day 1, Day 5): 12.0 | Enhancement of Latency by Naltrexone (tail flick) ([1]; male mice, Group 5: morphine 3 mg/kg + naltrexone 3000 ng/kg b.i.d. from day 1, Day 8): 10.4 | Enhancement of Latency by Naltrexone (tail flick) ([1]; male mice, Group 5: morphine 3 mg/kg + naltrexone 3000 ng/kg b.i.d. from day 1, Day 10): 7.4 | Enhancement of Latency by Naltrexone (tail flick) ([1]; male mice, Group 5: morphine 3 mg/kg + naltrexone 3000 ng/kg b.i.d. from day 1, Day 12, single bolus 10 μg/kg naltrexone to every mouse): −0.7 | Enhancement of latency versus other concentrations ([1]; male mice, naltrexone at 300 ng with morphine 3 mg/kg from day 1, Days 1, 3, 5, 8, 10): significantly greater | Latency versus other concentrations ([1]; males and females combined, naltrexone 30 ng/kg and 300 ng/kg, days 1, 3, 5, 6, 8, 10): significantly longer latency | Development of tolerance to morphine ([1]; naltrexone in combination with morphine): prevents the mice from developing a tolerance to morphine | Naltrexone effect on tail flick latency ([2]; female mice, naltrexone 3-3000 ng/kg b.i.d. from day 6, Days 6, 8, 10): significantly different from zero in enhancing latency | Effect on morphine tolerance ([2]; morphine-tolerant mice, naltrexone 3 ng/kg daily from Day 6): broke the tolerance; also recorded: breaks tolerance
